The subject of assay [1] is V9m reporter cell line expressing a 15-PGDH luciferase fusion construct. In words: 15-PGDH-luciferase fusion gene reporter induction, V9m cell line. It counts as cell-based. To be noted: for percent reporter induction over basal at […]: read-out: V9M-SC3 Reporter activity % ([…]), Table 18, read-out: V9M-SC3 Reporter activity % (7.5 μM). From the text:
These cell lines are Vaco-9m (V9m), LS174T, Vaco503 (V503). […] Value of 1.0 on the Y-axis is the basal level of reporter activity in cells treated with drug free DMSO vehicle.
This Example provides data on a group of structural analogues of SW033291. Data provided includes level of induction of a 15-PGDH-luciferase fusion gene reporter, recorded as % increased luciferase activity over basal level, in three colon cancer cell lines, V9m, V503, and LS174T, engineered to contain the reporter, and treated with either 2.5 uM or 7.5 uM compound (i.e., Values are recorded on a scale where 100 indicates of doubling of luciferase activity over baseline level).
FIGS. 27(A-C) show graphs that show the level of compound's activity in inducing the 15-PGDH-luciferase fusion reporter in three different test cell line backgrounds, V9m, LS174T, and V503. Each compound was tested at two concentrations, 2.5 uM, and 7.5 uM. Y-axis is luciferase activity.
Data provided include level of induction of a 15-PGDH-luciferase fusion gene reporter, recorded as % induction of luciferase activity over basal level, in three colon cancer cell lines, V9m, V503, and LS174T, engineered to contain the reporter, and treated with either 2.5 uM or 7.5 uM compound. […] Additionally, for selected compounds is recorded the decrease in PGE2 levels in the media of compound treated A549 cells that have been stimulated with IL-1 beta. Additionally recorded for selected compounds is the effect on A549 cell viability as measured by a CellTiter-Glo assay, and the effect of compounds on A549 cell colony formation.

Assay [2] addresses recombinant 15-PGDH protein (Homo sapiens (Human), UniProt P15428). As to the kind of experiment: Inhibition of enzymatic activity of recombinant 15-PGDH in vitro.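 Note: activity of recombinant human 15-PGDH assayed in vitro using PGE2 as the substrate.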 The class given is biochemical.
[3] abbreviates: read-out: Enzyme inhibition % ([…]), Table 18, […] compound, read-out: Enzyme inhibition % (2.5 μM).
Setting [4] is: read-out: Enzyme inhibition % ([…]), Table 18, […] compound, read-out: Enzyme inhibition % (7.5 μM).
Where [5] appears, read: read-out: Enzyme inhibition % ([…]), recombinant 15-PGDH, […] compound, read-out: Enzyme inhibition % (2.5 μM).
The mark [6] stands for this setting: read-out: Enzyme inhibition % ([…]), recombinant 15-PGDH, […] compound, read-out: Enzyme inhibition % (7.5 μM).

Like-named read-outs stand apart in the source and are kept apart here.

The inhibition is the relative decrease from the control value, in per cent.

Sequence of recombinant 15-PGDH protein (P15428 whole entry): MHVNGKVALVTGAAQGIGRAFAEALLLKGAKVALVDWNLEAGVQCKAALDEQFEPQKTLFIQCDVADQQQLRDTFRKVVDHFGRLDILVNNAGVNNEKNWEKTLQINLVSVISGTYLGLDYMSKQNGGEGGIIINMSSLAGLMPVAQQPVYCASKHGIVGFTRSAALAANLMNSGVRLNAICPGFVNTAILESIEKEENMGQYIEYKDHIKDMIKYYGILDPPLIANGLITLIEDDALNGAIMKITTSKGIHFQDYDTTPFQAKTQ

`Nc1c([S+]([O-])Cc2ccccc2)sc2nc(-c3cccs3)cc(-c3ccccc3)c12` (stereo not shown) [SW033292]: the activation at […] in assay [1] (read-out: V9M reporter activity ([…]), […], % increased luciferase activity over basal level, 100 = doubling, read-out: V9M reporter activity (2.5 uM)) was determined as 1.51%.

For the compound `CCc1ccccc1N(CC(=O)Nc1cccnc1)S(=O)(=O)c1ccccc1` [528580-69-0], the percent reporter induction over basal at […] in assay [1] is -0.5%. The inhibition at […] in assay [2] (setting [3]) is -8.22%; in assay [2] (setting [4]), 10.2%.

As for `COc1ccc(N(CC(=O)Nc2cccnc2)S(=O)(=O)c2ccccc2)cc1` [418783-65-0], the percent reporter induction over basal at […] in assay [1] stood at 67.2%. The results for the inhibition at […] in assay [2] (setting [3]) and in assay [2] (setting [4]) were 10.8% and 12.1%, respectively.

Turning to `O=C(CN(c1ccc2c(c1)OCCO2)S(=O)(=O)c1ccccc1)Nc1cccnc1` [701217-00-7], the percent reporter induction over basal at […] in assay [1] was found to be 79.5%. In addition, the inhibition at […] in assay [2] (setting [3]) was found to be 10.1%; in assay [2] (setting [4]), 13.1%.

`COc1ccc(OC)c(N(CC(=O)Nc2ccc(Cl)c(Cl)c2)S(=O)(=O)c2ccccc2)c1` [339589-55-8]: the percent reporter induction over basal at […] in assay [1] was found to be 8%. The figures for the inhibition at […] in assay [2] (setting [3]) and in assay [2] (setting [4]) were 19.1% and 22%, respectively.

Take `CCOc1ccc(N(CC(=O)Nc2cccnc2)S(=O)(=O)c2ccccc2)cc1` [428473-22-7]: the percent reporter induction over basal at […] in assay [1] is 2.05%. The inhibition at […] worked out at 3.76% in assay [2] (setting [3]) and 8.67% in assay [2] (setting [4]).

As for `COc1ccc(OC)c(N(CC(=O)NC2CCCCC2)S(=O)(=O)c2ccccc2)c1` [333446-93-8], the percent reporter induction over basal at […] in assay [1] came out at 44%. Moreover, the results for the inhibition at […] in assay [2] (setting [3]) and in assay [2] (setting [4]) were -5.31% and 5.85%, respectively.

For the compound `O=C(CN(c1ccccc1)S(=O)(=O)c1ccccc1)Nc1cccnc1` [331727-07-2], in assay [1], the percent reporter induction over basal at […] was determined as 120%. For the same compound, the inhibition at […] in assay [2] (setting [3]) stood at 9.65%; in assay [2] (setting [4]), 17.5%.

Take `COc1ccc(OC)c(N(CC(=O)Nc2ccc(F)cc2)S(=O)(=O)c2ccccc2)c1` [426231-26-7]: in assay [1], the percent reporter induction over basal at […] turned out to be 2.5%. Moreover, the inhibition at […] in assay [2] (setting [3]) turned out to be 39.8%; in assay [2] (setting [4]), 56.4%.

Turning to `COc1ccc(OC)c(N(CC(=O)Nc2cccnc2)S(=O)(=O)c2ccc(OC)c(OC)c2)c1` [680599-58-0], the percent reporter induction over basal at […] in assay [1] was -22.5%. Further, the values for the inhibition at […] in assay [2] (setting [3]) and in assay [2] (setting [4]) were 31.8% and 50.7%, respectively.

As for `COc1cccc(N(CC(=O)Nc2cccnc2)S(=O)(=O)c2ccccc2)c1` [335392-39-7], the percent reporter induction over basal at […] in assay [1] came to 7.18%. The results for the inhibition at […] in assay [2] (setting [3]) and in assay [2] (setting [4]) were 11% and 5.37%, respectively.

As to `CCc1ccc(N(CC(=O)Nc2cccnc2)S(=O)(=O)c2ccccc2)cc1` [461439-84-9], the percent reporter induction over basal at […] in assay [1] is -41.8%. For the same compound, the inhibition at […] worked out at 9.28% in assay [2] (setting [3]) and 3.35% in assay [2] (setting [4]).

Turning to `COc1ccc(OC)c(N(CC(=O)Nc2ccc(C)cc2)S(=O)(=O)c2ccccc2)c1` [311333-86-5], the percent reporter induction over basal at […] in assay [1] is 117%. Further, the inhibition at […] in assay [2] (setting [3]) came to 34%.

Regarding `COc1ccc(OC)c(N(CC(=O)Nc2ccccc2C(N)=O)S(=O)(=O)c2ccccc2)c1` [530107-57-4], the percent reporter induction over basal at […] in assay [1] turned out to be 116%. Besides, the inhibition at […] in assay [2] (setting [3]) was 21.7%; in assay [2] (setting [4]) it was 9.25%.

Turning to `O=C(CN(c1cc(Cl)ccc1Cl)S(=O)(=O)c1ccccc1)Nc1cccnc1` [833428-03-8], in assay [1], the percent reporter induction over basal at […] was 17.4%. Further, the inhibition at […] in assay [2] (setting [3]) came to 16.4%; in assay [2] (setting [4]) it was 49.2%.

Take `COc1ccc(Cl)cc1N(CC(=O)Nc1cccnc1)S(=O)(=O)c1ccccc1` [328012-52-8]: in assay [1], the percent reporter induction over basal at […] was 0.51%. The inhibition at […] stood at 67.4% in assay [2] (setting [3]) and 82.1% in assay [2] (setting [4]).

For `COc1cccc(NC(=O)CN(c2cc(OC)ccc2OC)S(=O)(=O)c2ccccc2)c1` [SW202976], the inhibition at […] in assay [2] (setting [5]) stood at 7.87%; in assay [2] (setting [6]), 29.8%.

As for `COc1ccc(S(=O)(=O)N(CC(=O)Nc2cccnc2)c2cc(C(F)(F)F)ccc2C(F)(F)F)cc1` [SW208008], the inhibition at […] worked out at 58.7% in assay [2] (setting [5]) and 70.9% in assay [2] (setting [6]).

The values are drawn from patent publication US10301320B2, “Compositions and methods of modulating 15-PGDH activity” (CASE WESTERN RESERVE UNIVERSITY, priority 2012, dated 2019).
